The results in this text go back to US8492388B2 (priority 2008, dated 2013).

Each structure is given as a SMILES string.

A short description of the first data set: Measurement of logP values by HPLC on reversed phase columns (EEC directive 79/831 Annex V.A8).
Details: not given
For orientation: chromatographic logP means a lipophilicity value derived from retention on a column. The compound `CN(C)c1cccc(C(=NOCc2cccc(NC(=O)C(F)(F)Oc3ccccc3)n2)c2nnnn2C)c1` [Example 30, N-(6-{[({[3-(dimethylamino)phenyl](1-methyl-1H-tetrazol-5-yl)methylene}amino)oxy]methyl}pyridin-2-yl)-2,2-difluoro-2-phenoxyacetamide] had a chromatographic logP of 4.14. Consider `COC(=O)c1cccc(CCl)c1` [3-(chloromethyl)benzoate, methyl 3-(chloromethyl)benzoate], for which the chromatographic logP was 2.64. As for `COCc1cccc(C(=NO)c2nnnn2C)c1` [N-hydroxy-1-[3-(methoxymethyl)phenyl]-1-(1-methyl-1H-tetrazol-5-yl)methanimine], the chromatographic logP worked out at 1.54.

With `CON(C)C(=O)c1cccc(OC(F)(F)F)c1` [N-methoxy-N-methyl-3-(trifluoromethoxy)benzamide], the chromatographic logP worked out at 2.41. `Cn1nnnc1C(=NOCc1csc(NC(=O)COc2ccccc2)n1)c1cccc(OC(F)(F)F)c1` [Example 53, N-(4-{[({(1-methyl-1H-tetrazol-5-yl)[3-(trifluoromethoxy)phenyl]methylene}amino)oxy]methyl}-1,3-thiazol-2-yl)-2-phenoxyacetamide]: the chromatographic logP was 3.99.

`Cn1nnnc1C(=O)c1cccc(OC(F)(F)F)c1` [(1-methyl-1H-tetrazol-5-yl)[3-(trifluoromethoxy)phenyl]methanone] displayed a chromatographic logP of 2.96. Still for that read-out and setting: the result for `COCc1cccc(C(=NOCc2cccc(NC(=O)OC(C)(C)C)n2)c2nnnn2C)c1` [Example 32, tert-butyl (6-{[({[3-(methoxymethyl)phenyl](1-methyl-1H-tetrazol-5-yl)methylene}amino)oxy]methyl}pyridin-2-yl)carbamate] reads 3.71; that for `COCc1cccc(C(=O)O)c1` [3-(methoxymethyl)benzoic acid], 1.33; that for `Cn1nnnc1C(=NO)c1cccc(OC(F)(F)F)c1` [N-hydroxy-1-(1-methyl-1H-tetrazol-5-yl)-1-[3-(trifluoromethoxy)phenyl]methanimine], 2.37.

On to `COCc1cccc(C(=O)c2nnnn2C)c1` [[3-(methoxymethyl)phenyl](1-methyl-1H-tetrazol-5-yl)methanone], for which the chromatographic logP came out at 2.01. `COCc1cccc(C(=O)N(C)OC)c1` [N-methoxy-3-(methoxymethyl)-N-methylbenzamide] gave a chromatographic logP of 1.43. Take `Cn1nnnc1C(=NOCc1csc(N)n1)c1cccc(OC(F)(F)F)c1` [Example 46, 4-{[({(1-methyl-1H-tetrazol-5-yl)[3-(trifluoromethoxy)phenyl]methylene}amino)oxy]methyl}-1,3-thiazol-2-amine]: the chromatographic logP was 2.1.

Staying with this data set, now noted: HPLC reversed phase, pH 2,7, 0.1% formic acid in water / acetonitrile gradient.
Compound `C#CCCOC(=O)Nc1cccc(CON=C(c2cccc(N(C)C)c2)c2nnnn2C)n1` [Example 23] had a logp of 3.21. Compound `CC#CCOC(=O)Nc1cccc(CON=C(c2cccc(COC)c2)c2nnnn2C)n1` [Example 33] displayed a logp of 3.21. Still for that read-out and setting: the result for `CON(C)C(=O)Nc1cccc(CON=C(c2cccc(N(C)C)c2)c2nnnn2C)n1` [Example 31] reads 2.71; that for `C=CCCOC(=O)Nc1cccc(CON=C(c2cccc(OC(F)(F)F)c2)c2nnnn2C)n1` [Example 8], 4.2; that for `CCCCCOC(=O)Nc1cccc(CON=C(c2cccc(COC)c2)c2nnnn2C)n1` [Example 38], 4.18. On the same count and under the same terms, the result for `Cn1nnnc1C(=NOCc1cccc(N)n1)c1cccc(OC(F)(F)F)c1` [Example 5] reads 1.69; that for `C=CCCOC(=O)Nc1cccc(CON=C(c2cccc(N(C)C)c2)c2nnnn2C)n1` [Example 24], 3.64; that for `C=CCCOC(=O)Nc1nc(CON=C(c2cccc(SC)c2)c2nnnn2C)cs1` [Example 21], 3.64.

Still in this data set, the particulars now being: pH 2.7.
`CN(C)c1cccc(C(=NOCc2cccc(NC(=O)C(F)(F)Oc3ccccc3)n2)c2nnnn2C)c1` [Example 30, N-(6-{[({[3-(dimethylamino)phenyl](1-methyl-1H-tetrazol-5-yl)methylene}amino)oxy]methyl}pyridin-2-yl)-2,2-difluoro-2-phenoxyacetamide]: the chromatographic logP was determined as 4.14. Consider `Cn1nnnc1C(=NOCc1csc(NC(=O)COc2ccccc2)n1)c1cccc(OC(F)(F)F)c1` [Example 53, N-(4-{[({(1-methyl-1H-tetrazol-5-yl)[3-(trifluoromethoxy)phenyl]methylene}amino)oxy]methyl}-1,3-thiazol-2-yl)-2-phenoxyacetamide], for which the chromatographic logP was 3.99. Take `COCc1cccc(C(=NOCc2cccc(NC(=O)OC(C)(C)C)n2)c2nnnn2C)c1` [Example 32, tert-butyl (6-{[({[3-(methoxymethyl)phenyl](1-methyl-1H-tetrazol-5-yl)methylene}amino)oxy]methyl}pyridin-2-yl)carbamate]: the chromatographic logP amounted to 3.71. Compound `Cn1nnnc1C(=NOCc1csc(N)n1)c1cccc(OC(F)(F)F)c1` [Example 46, 4-{[({(1-methyl-1H-tetrazol-5-yl)[3-(trifluoromethoxy)phenyl]methylene}amino)oxy]methyl}-1,3-thiazol-2-amine] returned a chromatographic logP of 2.1. On the same count and under the same terms, the value for `CN(C)c1cccc(C(=NOCc2cccc(N)n2)c2nnnn2C)c1` [Example 22, 6-{[({[3-(dimethylamino)phenyl](1-methyl-1H-tetrazol-5-yl)methylene}amino)oxy]methyl}pyridin-2-amine] was 1.19.
